Columns and labels:
Kumulus-Eizell Komplexe = test: cumulus expansion test in vitro; type: cell-based, Mäusen; conditions: in competition with PGE2
Excerpt: In immaturen weiblichen Mäusen (Stamm : CD1 (ICR) von Charles River) wird in einem Alter von 14-18 Tagen die Follikulogenese durch eine einmalige Gabe (intraperitoneal) von 10 I.E. PMSG (Pregnant Mare Serum Gonadotropine; Sigma G-4877, Lot 68H0909) induziert. 47 - 50 Stunden nach der Injektion werden die Ovarien entnommen und die Kumulus-Eizell Komplexe entnommen. Der Kumulus Komplex ist in diesem Stadium noch nicht expandiert. Die Kumulus-Eizell Komplexe werden nun für 20 - 24 Stunden mit Prostaglandin E2 (PGE2) (0,3 µM), Vehikel Kontrolle (Ethanol) oder Testsubstanzen inkubiert. Medium: alpha- MEM Medium mit 0,1 mM IBMX, Pyruvate (0,23 mM) Glutamine (2 mM), Pen/Strep 100 IU/ml Pen. und 100 µg/ml Strep.) und HSA (8 mg/ml)). Danach wird die Kumulus Expansion durch die Einteilung in vier Stadien (nach Vanderhyden et al. Dev Biol. 1990 Aug;140(2):307-317) festgestellt. Tabelle 1: Beispiel für die biologische Wirksamkeit der erfindungsgemäßen Verbindungen (gemessen mittels cAMP Antagonismustest): […]

[1] = target: T1, humanen Prostaglandin E2 (Subtyp EP2) Rezeptor (Homo sapiens, UniProt P43116); test: cAMP antagonism test (HTRF cAMP detection, in presence of PGE2); type: cell-based; conditions: cAMP Antagonismustest, read-out: Antagonismus [IC50
T1 construct: host or cells: cells in a culture plate
T1 sequence (P43116 whole entry): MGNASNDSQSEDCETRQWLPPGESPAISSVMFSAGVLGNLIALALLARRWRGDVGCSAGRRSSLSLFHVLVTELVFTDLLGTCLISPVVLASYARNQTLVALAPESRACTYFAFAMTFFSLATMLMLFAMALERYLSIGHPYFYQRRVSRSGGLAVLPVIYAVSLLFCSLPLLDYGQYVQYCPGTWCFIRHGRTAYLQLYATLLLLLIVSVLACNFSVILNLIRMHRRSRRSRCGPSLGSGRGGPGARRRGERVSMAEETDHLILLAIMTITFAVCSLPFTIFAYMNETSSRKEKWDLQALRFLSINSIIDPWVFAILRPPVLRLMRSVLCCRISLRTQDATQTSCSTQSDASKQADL
Excerpt: Die Bindung von PGE2 an den EP2-Subtyp des humanen PGE2-Rezeptors induziert die Aktivierung membranständiger Adenylatzyklasen und führt zur Bildung von cAMP. In Gegenwart des Phosphodiesteraseinhibitors IBMX wird das durch diese Stimulation akkumulierte und mittels Zell-Lyse freigesetzte cAMP in einem kompetitiven Nachweisverfahren eingesetzt. In diesem Test konkurriert das cAMP im Lysat mit cAMP-XL665 um die Bindung eines Eu-Kryptat markierten Anti-cAMP Antikörpers. Dabei entsteht in Abwesenheit von zellulärem cAMP ein maximales Signal, welches auf der Kopplung dieses Antikörpers an das cAMP-XL665 Molekül beruht. Dadurch entsteht nach Anregung bei 337 nm ein auf FRET (fluorescence resonance energy transfer) basierendes, lang anhaltendes Emissionssignal bei 665 nm (und bei […]). Beide Signale werden in einem geeigneten Messgerät zeitlich versetzt, d.h. nach Abklingen der Hintergrundsfluoreszenz gemessen. Jegliche Erhöhung des durch Prostglandin-E2-Gabe bedingten niedrigen FRET-Signals (gemessen als Well-Ratio-Veränderung = Emission665nm/Emission620nm * 10000) zeigt die Wirkung von Antagonisten.
Die in einer Testplatte und 30 % DMSO vorgelegten Substanzlösungen (0.75 µl) werden in 16 µl einer KRSB+IBMX-Stimulationslösung gelöst (1 X Krebs-Ringer Bicarbonate Buffer; Sigma-Aldrich # K-4002; inklusive 750 µM 3-Isobutyl-1-methylxanthine Sigma-Aldrich # I-7018), anschließend werden 15 µl davon in eine medienfreie Zellkulturplatte überführt, die kurz zuvor mit KRSB gewaschen worden war. Nach einer 30-minütigen Vorinkubation bei Raumtemperatur (RT) werden 5 µl einer 4xPGE2 Lösung (11 nM) zugegeben und in Gegenwart des Agonisten für weitere 60 min bei RT inkubiert (Volumen: - 20 µl), bevor die Reaktion anschließend durch Zugabe von 5 µl Lysispuffer gestoppt und für weitere 20 min bei RT inkubiert wird (Volumen: - 25 µl). Das Zell-Lysat wird anschließend in eine Messplatte überführt und entsprechend den Herstellerangaben (cyclic AMP kit Cisbio International # 62AMPPEC) gemessen.

[2] = target: T1, humanen Prostaglandin E2 (Subtyp EP2) Rezeptor; test: cellular agonism test (HTRF cAMP detection, without PGE2); type: cell-based

CC(C)Oc1ccc2c(=O)c3cc(C(=O)O)ccc3oc2c1 [AH 6809, reference compound]
Unterdrückung der Kumulus Expansion (Kumulus-Eizell Komplexe; 100 - 200 µM): ca. 30%

CCOc1cccc(CCC(=O)NCCc2c(C)[nH]c3c(F)ccc(C)c23)c1 [Beispiel 7, 3-(3-Ethoxyphenyl)-N-[2-(7-fluoro-2,4-dimethyl-1 H-indol-3-yl)-ethyl]-propionamid]
IC50 [1]: 1.2 µM

Cc1[nH]c2c(F)ccc(C)c2c1CCNC(=O)CCc1ccc(F)cc1 [Beispiel 9, N-[2-(7-Fluoro-2,4-dimethyl-1 H-indol-3-yl)-ethyl]-3-(4-fluorophenyl)-propionamid]
IC50 [1]: 1.5 µM
Wirkung im zellulären Agonismustest [2]: keine Inhibition
Unterdrückung der Kumulus Expansion (Kumulus-Eizell Komplexe; 10 µM): 20%

Cc1[nH]c2c(F)ccc(C)c2c1CCNC(=O)/C=C/c1cc(F)cc(F)c1 [Beispiel 20, (E)-3-(3,5-Difluorphenyl)-N-[2-(7-fluor-2,4-dimethyl-1 H-indol-3-yl)-ethyl]-acrylamid]
IC50 [1]: 0.83 µM
